Selectivity ratio and Activity data for two compounds are collected here from ChEMBL document CHEMBL6153043, “Anthelmintic Potential of Conjugated Long-Chain Fatty Acids Isolated from the Bioluminescent Mushroom Neonothopanus gardneri” (J Nat Prod, 2025).

The nature of series [1]: Selectivity index, ratio of CC50 for African green monkey Vero cells to EC50 for anti-schistosomal activity against female Schistosoma mansoni. Type of series: toxicity, cell-based. The following applies: read-out: Ratio CC50/EC50.
Series [2] can be described thus: Selectivity index, ratio of CC50 for African green monkey Vero cells to EC50 for anti-schistosomal activity against male Schistosoma mansoni. Type of series: toxicity, cell-based. The note with it: read-out: Ratio CC50/EC50.
Series [3] in a line: Toxicity against L4 stage of Caenorhabditis elegans assessed as effect on viability by measuring mobility at 25 to 200 uM incubated for 24 hrs by inverted microscopic analysis. The note with it: dose 25-200 µM.

As for `CCCCCCCC/C=C\[C@@H](O)[C@H](O)CCCCCC(=O)O`, the selectivity ratio in series [1] is greater than 6.13; in series [2] it was greater than 24.1. The Activity result in series [3] is on record as “Non-toxic”.

Consider `O=C(C1CCCCC1)N1CC(=O)N2CCc3ccccc3C2C1` (stereo not given) [PRAZIQUANTEL], for which the values for the selectivity ratio in series [1] and in series [2] were greater than 333 and greater than 250, respectively.
